For orientation: MIC means the smallest concentration in the dilution series that meets the test's criterion for growth inhibition. A high value points to a less susceptible organism. The term LD50 denotes the dose expected to kill half of the subjects tested.

In brackets after ≈: the same amount, converted by molar mass.

One data set concerns Staphylococcus aureus. Description: antibacterial activity (MIC) against Staphylococcus aureus. The data set is classed as cell-based.
A further data set deals with Bacillus subtilis. Description: antibacterial activity (MIC) against Bacillus subtilis. The data set is classed as cell-based.
A short description of data set [1]: acute toxicity (LD50), mouse, intraperitoneal. It counts as in vivo.

For the molecule `COC1c2cc(O)cc(c2O)NC(=O)/C(C)=C/C=C\C(C)C(OC(N)=O)/C(C)=C/C(C)C(OC)C(O)CC1C` (centres unmarked) [E-5-R], the minimal inhibitory concentration (MIC) in the data set with Staphylococcus aureus and in the data set on Bacillus subtilis was 50 to 100 µg/mL (≈ 91.5 to 183 µM) throughout. In data set [1] (in vivo, ip, intraperitoneal, acute toxicity), this molecule showed an LD50 of 100 to 200 mg/kg. Besides, the “acute toxicity as compared with Macbecin I and II” value in data set [1] (intraperitoneal, compared with Macbecin I and II) is on record as “lower toxicity”. The “acute toxicity (in words)” value in data set [1] (ip, conclusion from the LD50) was “low toxicity”.

Take `COC1CC(C)C(OC)c2cc(O)cc(c2O)NC(=O)C(C)=CC=CC(C)C(OC(N)=O)C(C)=CC(C)C1O` (centres unmarked) [E-3-R]: the MIC against Staphylococcus aureus and in the data set on Bacillus subtilis was 50 to 100 µg/mL (≈ 91.5 to 183 µM) throughout.

Take `COC1CC(C)C(OC)C2=CC(=O)C=C(NC(=O)C(C)=CC=CC(C)C(OC(N)=O)C(C)=CC(C)C1O)C2=O` (centres unmarked) [E-3]: the MIC in the data set with Staphylococcus aureus and with Bacillus subtilis was 50 to 100 µg/mL (≈ 91.8 to 184 µM) in each case.

For `COC1C2=CC(=O)C=C(NC(=O)C(C)=CC=CC(C)C(OC(N)=O)C(C)=CC(C)C(OC)C(O)CC1C)C2=O` (centres unmarked) [E-5], the minimum inhibitory concentration (MIC) in the data set with Staphylococcus aureus and with Bacillus subtilis was 50 to 100 µg/mL (≈ 91.8 to 184 µM) throughout.

(Values after patent publication US4421687A, “Macbecin derivatives” (priority 1981, dated 1983).)
